Reference: ChEMBL document CHEMBL1255463, “Attenuation of colistin bactericidal activity by high inoculum of Pseudomonas aeruginosa characterized by a new mechanism-based population pharmacodynamic model” (Antimicrob Agents Chemother, 2010)
Calls of active or inactive are those of the source. The rule behind the calls is not given here.

Columns and labels:
Type in all cases: functional, organism-based
Pseudomonas aeruginosa [1] = assay: Antimicrobial activity against 10^9 CFU/ml Pseudomonas aeruginosa PAO1 after 24 hrs by time-kill assay
Pseudomonas aeruginosa [2] = assay: Antimicrobial activity against 10^9 CFU/ml Pseudomonas aeruginosa URMC1 after 24 hrs by time-kill assay
Pseudomonas aeruginosa [3] = assay: Antimicrobial activity against 10^6 CFU/ml Pseudomonas aeruginosa PAO1 after 24 hrs by time-kill assay
Pseudomonas aeruginosa [4] = assay: Antimicrobial activity against 10^6 CFU/ml Pseudomonas aeruginosa URMC1 after 24 hrs by time-kill assay
Pseudomonas aeruginosa [5] = assay: Antimicrobial activity against 10^8 CFU/ml Pseudomonas aeruginosa PAO1 after 24 hrs by time-kill assay
Pseudomonas aeruginosa [6] = assay: Antimicrobial activity against 10^6 CFU/ml Pseudomonas aeruginosa URMC2 after 24 hrs by time-kill assay
Pseudomonas aeruginosa [7] = assay: Antimicrobial activity against 10^8 CFU/ml Pseudomonas aeruginosa URMC1 after 24 hrs by time-kill assay
Pseudomonas aeruginosa [8] = assay: Antimicrobial activity against 10^9 CFU/ml Pseudomonas aeruginosa URMC2 after 24 hrs by time-kill assay
Pseudomonas aeruginosa [9] = assay: Antimicrobial activity against 10^8 CFU/ml Pseudomonas aeruginosa URMC2 after 24 hrs by time-kill assay
Pseudomonas aeruginosa [10] = assay: Bactericidal activity against 10^6 CFU/ml Pseudomonas aeruginosa URMC1 at 1 to 4 times MIC up to 1 hr by time-kill assay
Pseudomonas aeruginosa [11] = assay: Antimicrobial activity against 10^6 CFU/ml Pseudomonas aeruginosa PAO1 at 2 to 16 mg/L after 24 hrs by time-kill assay
Pseudomonas aeruginosa [12] = assay: Antimicrobial activity against 10^9.4 CFU/ml Pseudomonas aeruginosa PAO1 at 64 mg/L after 0.75 hrs by time-kill assay
Pseudomonas aeruginosa [13] = assay: Antimicrobial activity against 10^9 CFU/ml Pseudomonas aeruginosa PAO1 after 8 to 12 hrs by time-kill assay
Pseudomonas aeruginosa [14] = assay: Antimicrobial activity against 10^9.4 CFU/ml Pseudomonas aeruginosa PAO1 at 64 mg/L after 24 hrs by time-kill assay
Pseudomonas aeruginosa [15] = assay: Bactericidal activity against 10^6 CFU/ml Pseudomonas aeruginosa URMC1 at >= 16 times MIC up to 30 mins by time-kill assay
Pseudomonas aeruginosa [16] = assay: Antimicrobial activity against 10^8 CFU/ml Pseudomonas aeruginosa PAO1 at 4 to 32 mg/L after 24 hrs by time-kill assay
Pseudomonas aeruginosa [17] = assay: Antimicrobial activity against Pseudomonas aeruginosa assessed as destabilization of bacterial outer membrane by receptor occupancy assay
Pseudomonas aeruginosa [18] = assay: Antimicrobial activity against 10^9.4 CFU/ml Pseudomonas aeruginosa PAO1 at 16 mg/L after 0.75 hrs by time-kill assay
Pseudomonas aeruginosa [19] = assay: Bactericidal activity against 10^6 CFU/ml Pseudomonas aeruginosa PAO1 at >= 16 times MIC up to 30 mins by time-kill assay
Pseudomonas aeruginosa [20] = assay: Bactericidal activity against 10^6 CFU/ml Pseudomonas aeruginosa PAO1 at 1 to 4 times MIC up to 1 hr by time-kill assay
Pseudomonas aeruginosa [21] = assay: Bactericidal activity against 10^6 CFU/ml Pseudomonas aeruginosa URMC2 at >= 16 times MIC up to 30 mins by time-kill assay
Pseudomonas aeruginosa [22] = assay: Antimicrobial activity against 10^9 CFU/ml Pseudomonas aeruginosa PAO1 at 4 to 128 mg/L after 24 hrs by time-kill assay
Pseudomonas aeruginosa [23] = assay: Bactericidal activity against 10^6 CFU/ml Pseudomonas aeruginosa URMC2 at 1 to 4 times MIC up to 1 hr by time-kill assay
Pseudomonas aeruginosa [24] = assay: Antimicrobial activity against 10^9.4 CFU/ml Pseudomonas aeruginosa PAO1 at 16 mg/L after 24 hrs by time-kill assay

COLISTIN [listing 1 of 2 here]
EC50 (Pseudomonas aeruginosa [1]): 6.22 µg/mL
EC50 (Pseudomonas aeruginosa [2]): 4.62 µg/mL
EC50 (Pseudomonas aeruginosa [3]): 0.777 µg/mL
EC50 (Pseudomonas aeruginosa [4]): 0.736 µg/mL
EC50 (Pseudomonas aeruginosa [5]): 1.49 µg/mL
EC50 (Pseudomonas aeruginosa [6]): 1.15 µg/mL
EC50 (Pseudomonas aeruginosa [7]): 2.69 µg/mL
EC50 (Pseudomonas aeruginosa [8]): 3.5 µg/mL
EC50 (Pseudomonas aeruginosa [9]): 2.56 µg/mL

COLISTIN [listing 2 of 2 here]
Activity (Pseudomonas aeruginosa [10]): Active
Activity (Pseudomonas aeruginosa [11]): inactive
Activity (Pseudomonas aeruginosa [3]): Dose-dependent effect
log10CFU/ml (Pseudomonas aeruginosa [12]): > 5
Activity (Pseudomonas aeruginosa [13]): inactive
log10CFU/ml (Pseudomonas aeruginosa [14]): > 5
Activity (Pseudomonas aeruginosa [15]): Active
Activity (Pseudomonas aeruginosa [4]): Dose-dependent effect
Activity (Pseudomonas aeruginosa [6]): Dose-dependent effect
Activity (Pseudomonas aeruginosa [16]): inactive
Activity (Pseudomonas aeruginosa [17]): 53.7%
log10CFU/ml (Pseudomonas aeruginosa [18]): > 5
Activity (Pseudomonas aeruginosa [19]): Active
Activity (Pseudomonas aeruginosa [20]): Active
Activity (Pseudomonas aeruginosa [21]): Active
Activity (Pseudomonas aeruginosa [22]): inactive
Activity (Pseudomonas aeruginosa [23]): Active
log10CFU/ml (Pseudomonas aeruginosa [24]): 5
